What is called IC50 is the concentration needed to halve the response being measured.

The results in this text go back to patent publication US5281710A, “Dynemicin analogs: synthesis, methods of preparation and use” (The Scripps Research Institute, priority 1992, dated 1994).

One assay deals with M-21 melanoma cells. Put plainly: Inhibition of [3H]thymidine uptake (DNA synthesis) in M-21 cells. In kind it is cell-based, human. Particulars: 72 hours incubation. As to the method:
These determinations were made by standard tissue growth procedures using RPMI tissue culture medium supplemented with 10 percent fetal bovine serum plated at 10^4 cells in 100 μl of medium in 96-well tissue culture plates. The cells were permitted to adhere for 24 hours, and the dilutions of Compound 153 were added in 10 μl volumes and incubated for 72 hours at 37° C. in a humidified atmosphere containing five percent CO2. The plates were then washed three times with tissue culture medium and again incubated for 24 hours, as above. Each well received 1 μCi of ^3 H-labeled substrate, and after an additional 16 hours of incubation, cells were collected on glass fiber filters with a Skatron cell harvester. Finally, the filters were placed in Ecolume scintillation cocktail (ICN, Irvine, Calif.), and radioactivity was measured with a Beckeman scintillation counter. Incorporation of the ^3 H label was calculated as a percentage of untreated controls.

Assay [1] has as its system multiple-drug resistant TCAF-DAX cell line. Kind of assay: Cytotoxicity, TCAF-DAX. In kind it is cell-based. As to the method: (§1) In addition to the screening already discussed, several of the before-described compounds and chimeras were screened against several or all of a panel of ten to twenty-five cancerous cell lines as target cells and seven "normal" cell preparations. This screening utilized a sulforhodamine B cytotoxidity assay as discussed below.
(§2) IC50 values; i.e., the concentration of Compound required to kill one-half of the treated cells, were then calculated.

The test system of assay [2] is HT-29 colon carcinoma cells. Kind of assay: Sulforhodamine B cytotoxicity, HT-29. Conditions: Homo sapiens, HT-29, colon carcinoma H-29 (Table 4) / HT-29 (Table 5); read-out: IC50. It counts as cell-based. Put shortly:
(§3)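 Compounds and chimeras were screened against a panel of ten to twenty-five cancer cell lines plus seven "normal" cell preparations. Cytotoxicity was measured by sulforhodamine B staining, and IC50 was taken as the compound concentration required to kill one-half of the treated cells.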

In assay [3] the test system is SK-Mel-28, M-14, M-21, Capan-1, Ovcar-3, Ovcar-4, UCLA-P-3, U-87, U-251 and Molt-4 cell lines. In kind it is cell-based. Conditions: ten tumor cell lines. How it is done: In other studies, IC50 values were determined for the anti-tumor agents dynemicin A, calicheamicin γ1^I, taxol, vinblastine/vincristine, doxorubicin, actinomycin D and bleomycin sulfate against the SK-Mel-28, M-14, M-21, Capan-1, Ovcar-3, Ovcar-4, UCLA-P-3, U-87, U-251 and Molt-4 cell lines.

Another assay relates to U-251 MG glioma cells. Kind of assay: Sulforhodamine B cytotoxicity, U-251. In kind it is cell-based. Conditions: Homo sapiens. How it is done:
as §1, §2

In assay [4] the test system is Capan-1 pancreatic carcinoma cells. Kind of assay: Sulforhodamine B cytotoxicity, Capan-1. Conditions: Homo sapiens, CAPAN-1, Capan-1; read-out: IC50. In kind it is cell-based. Put shortly:
as §3

Assay [5] has as its system Mel-7 breast carcinoma cells. Put plainly: Sulforhodamine B cytotoxicity, Mel-7 (breast carcinoma). In kind it is cell-based. Conditions: Breast carcinoma cell. As to the method: as §1, §2
The next assay concerns SK-Mel-28 melanoma cells. Put plainly: Sulforhodamine B cytotoxicity, SK-Mel-28. In kind it is cell-based. Particulars: Homo sapiens, SK-MEL-28, SK-Mel-28; read-out: IC50. A digest of the protocol:
as §3

For the next assay, the system named is RPMI-8226 cells. Kind of assay: Sulforhodamine B cytotoxicity, RPMI-8226. Particulars: Homo sapiens. In kind it is cell-based. As to the method:
as §1, §2

`O=C(OCCS(=O)(=O)c1ccccc1)N1c2ccc(OCCO)cc2C23OC24CCCC3C#C/C=C\C#CC14` (stereo not drawn) [Compound 153]: the “inhibition of [3H]thymidine uptake (DNA synthesis)” value in the assay with M-21 melanoma cells is reported as “severely impair the ability of M-21 melanoma cells to synthesize DNA”. Further, the IC50 was 0.0017 µM in [1]; 1.6 µM in assay [2]; 0.39 µM in the assay with U-251 MG glioma cells; 0.0039 µM in assay [4]; 0.78 µM in assay [5]; 3.1 µM in the assay on SK-Mel-28 melanoma cells. Besides, the concentration for half-maximal inhibition (IC50) in the assay on RPMI-8226 cells came out at 0.0077 µM. Further, the “relative potency among agents across cell lines” value in assay [3] was “comparable to most of the other agents against the other cell lines”.
